Source: patent US20230190743A1, “TREATMENT WITH ILEAL BILE ACID TRANSPORTER (IBAT) INHIBITORS FOR INCREASED EVENT-FREE SURVIVAL (EFS)” (Mirum Pharmaceuticals, Inc., priority 2021, published 2023)
“And” between values parts separate entries of the source, which are not always exact repeats. Equal entries are not always repeated.

Assays:
Type in all cases: in vivo, human
[1] = system: patients with PFIC due to BSEP deficiency; test: Longitudinal serum bile acid profiling by UHPLC-MS/MS in INDIGO patients
Description: Total and individual serum BAs (sBA) including the major sub-species of TCA, TUDCA, TCDCA, TDCA, TLCA, GCA, GUDCA, GCDCA, GDCA, GLCA, CA, UDCA, CDCA, DCA, LCA and 7α-hydroxy-4-cholesten-3-one (sterol-C4), a surrogate marker for BA synthesis, were measured using a validated ultraperformance liquid chromatography coupled with tandem mass spectrometry (UHPLC-MS/MS) assay. The internal standards, a cocktail of deuterium labeled standards were added to serum, calibrators and QC samples. sBA were extracted and separated on a Kinetex C18 (2.6 μm, 100×3.0 mm) column (Phenomenex, Torrance, Calif.) with gradient elution. Quantification of individual sBA was achieved by multiple reaction monitoring (MRM) of selected transitions. Total C24 bile acid concentrations were calculated from the sum of individual species. These assays were applied to the analysis of serum from 19 patients with genetically confirmed PFIC due to BSEP deficiency (open-label phase 2 INDIGO trial; NCT02057718) treated with MRX. Changes in the composition of sBA associated with pruritus improvement measured with the Itch Reported Outcome Observer (ItchRO[Obs]) score were monitored at intervals over 72 weeks, with pruritus responders, defined as >1 scale reduction, compared with nonresponders. Linear mixed model framework was also used to model longitudinal profiles of sBA and pruritus reduction over time.

[2] = system: patients with ALGS; test: Phase 2 ICONIC trial, 48-week HRQoL analysis by ItchRO treatment response; set-up: key to Beta, ItchRO treatment response at week 48 Yes vs No, PedsQL Generic Core Scale / Beta, ItchRO treatment response at week 48 Yes vs No, Family Impact Scale / Beta, ItchRO treatment response at week 48 Yes vs No, Multidimensional Fatigue Scale: regression beta in HRQoL score points (0-100 scale), responders vs not
Description: A retrospective analysis was performed of 48-week data from the Phase 2 ICONIC trial, a study with a 4-week double-blind, placebo-controlled, randomized drug withdrawal period in patients with ALGS. Patients had moderate to severe pruritus as measured using a validated caregiver-reported Itch Reported Outcome (ItchRO) severity assessment tool (0=none to 4=very severe). Clinically meaningful pruritus response was defined as a ≥1 point reduction in the ItchRO, from baseline to week 48. HRQoL was assessed using the Pediatric Quality of Life Inventory Generic Core (PedsQL; 0-100 scale, 100=best quality of life), Family Impact (FI), and Multidimensional Fatigue (MF) scale scores, and were collected via caregiver. The minimal clinically important difference (MCID) for the HRQoL assessments is 5 points. A subset of individual items from the HRQoL scales were also independently selected for assessment with treatment response. HRQoL scores and selected items were assessed at baseline and week 48 and stratified by treatment response status. P-values were calculated using t-tests or ANOVAs. Multivariate linear regression models were used to assess the relationship between the mean change from baseline in HRQoL score (dependent variable) and an indicator for treatment response (independent variable), adjusting for baseline HRQoL. Adjustment for additional baseline covariates was also explored for the following variables: age, gender, bilirubin, rifampicin use, height z-score, weight z-score, ItchRO, and serum bile acid.

[3] = system: patients with ALGS; test: Predictors of 6-year EFS and TFS in maralixibat-treated patients from three long-term clinical trials
Description: MRX-treated ALGS patients from 3 long-term clinical trials were followed for development of clinically significant events (LTx, surgical biliary diversion [SBD], hepatic decompensation [ascites requiring therapy and variceal bleeding], and death) for up to 6 yrs. TFS (LTx and death only) was also assessed. Those who were on MRX 48 weeks from the first dose and had lab results at 48 weeks were included in this analysis. Variables considered in the model included: liver biochemistries, platelets, pruritus (as assessed by ItchRO(Obs) 0¬4 scale), total serum bile acids (sBA), and age. Goodness of fit was assessed using Harrell's concordance statistic (C-statistic). Cutoffs were determined via a grid search. P-values are from a log-rank test.
Patients (N=76) with ALGS aged 14-207 months with moderate-to-severe pruritus were included in this analysis. Maralixibat-treated patients with ALGS from three long-term clinical trials (ClinicalTrials.gov ID: NCT02047318; ClinicalTrials.gov ID: NCT02160782; ClinicalTrials.gov ID: NCT02117713) were followed for development of first clinically significant event (LT, surgical biliary diversion, hepatic decompensation [ascites requiring therapy and variceal bleeding], or death) for up to six years. TFS (LT and death only) was also assessed. Patients who were on maralixibat 48 weeks from the first dose and had lab results at 48 weeks were included in this analysis.
Variables considered in the model included: liver biochemistries, platelets, pruritus (as assessed by Itch-Reported Outcome [Observer] [ItchRO(Obs)] 0-4 scale), total sBA, and age at initiation. These were explored at baseline, week 48, and change from baseline to week 48. Goodness of fit was assessed using Harrell's concordance statistic (C-statistic). Variables with a value ≥0.7 (indicating a good model) were selected for further analysis. Cutoffs for each variable were determined via a grid search across the range of values. Statistical comparisons between the cutoff groups were calculated using a log-rank test.

[4] = Week 48 sBA <200 μmol/L, n = 56
[5] = Week 48 sBA ≥200 μmol/L, n = 18
[6] = Week 48 total bilirubin <6.5 mg/dL, n = 52
[7] = Week 48 total bilirubin ≥6.5 mg/dL, n = 24
[8] = age at initiation of maralixibat <36 months, n = 21
[9] = age at initiation of maralixibat ≥36 months, n = 55
[10] = change from baseline to week 48 ItchRO(Obs) >1 pt reduction, n = 46
[11] = change from baseline to week 48 ItchRO(Obs) ≤1 pt reduction, n = 30

CCCCC1(CCCC)CS(=O)(=O)c2ccc(N(C)C)cc2[C@@H](c2ccc(OCc3ccc(C[N+]45CCN(CC4)CC5)cc3)cc2)[C@H]1O [maralixibat]
reduction from baseline in total sBA, pruritus responders vs nonresponders ([1]; longitudinal data, p<0.05, result in words): significantly greater | patients who met the pruritus-response criteria (>1 scale reduction ItchRO[Obs]) ([1]; of the 19 patients, over 72 weeks): 11 patients | proportion of unconjugated BA ([1]; pruritus nonresponders, p=0.09): 0.61±0.24% | proportion of unconjugated BA ([1]; pruritus responders): 9.84±4.87% | HRQoL at Week 48 (mean ± SD), Family Impact Scale ([2]; ItchRO Non-Responders): 54.7 ± 20.0 | HRQoL at Week 48 (mean ± SD), Multidimensional Fatigue Scale ([2]; ItchRO Non-Responders): 64.2 ± 15.1 | HRQoL at Week 48 (mean ± SD), PedsQL Generic Core Scale ([2]; ItchRO Non-Responders): 62.4 ± 14.5 | HRQoL change from baseline to Week 48 (mean ± SD), Family Impact Scale ([2]; ItchRO Non-Responders): 3.9 ± 7.8 | HRQoL change from baseline to Week 48 (mean ± SD), Multidimensional Fatigue Scale ([2]; ItchRO Non-Responders): −3.1 ± 19.8 | HRQoL change from baseline to Week 48 (mean ± SD), PedsQL Generic Core Scale ([2]; ItchRO Non-Responders): 1.2 ± 11.1 | HRQoL at Week 48 (mean ± SD), Family Impact Scale ([2]; ItchRO Responders): 73.9 ± 19.6 | HRQoL at Week 48 (mean ± SD), Multidimensional Fatigue Scale ([2]; ItchRO Responders): 76.2 ± 15.1 | HRQoL at Week 48 (mean ± SD), PedsQL Generic Core Scale ([2]; ItchRO Responders): 70.4 ± 15.7 | HRQoL change from baseline to Week 48 (mean ± SD), Family Impact Scale ([2]; ItchRO Responders): 17.8 ± 23.4 | HRQoL change from baseline to Week 48 (mean ± SD), Multidimensional Fatigue Scale ([2]; ItchRO Responders): 25.8 ±23.0 | HRQoL change from baseline to Week 48 (mean ± SD), PedsQL Generic Core Scale ([2]; ItchRO Responders): 11.6 ± 20.3 | Beta, ItchRO treatment response at week 48 Yes vs No, Multidimensional Fatigue Scale ([2]; multivariate regression, adjusted for baseline HRQoL, N = 21, CI −2.49, 30.32): 13.92 | Beta, ItchRO treatment response at week 48 Yes vs No, Family Impact Scale ([2]; multivariate regression, adjusted for baseline HRQoL, N = 26, CI 1.01, 32.68): 16.85 | Beta, ItchRO treatment response at week 48 Yes vs No, PedsQL Generic Core Scale ([2]; multivariate regression, adjusted for baseline HRQoL, N = 27, CI −3.86, 21.38): 8.76 | HRQoL change from baseline to week 48 across all scales ([2]; non-responders, result in words): No clinically meaningful change | average increase of Family Impact score, responders compared with non-responders ([2]; over the 48 weeks, controlling for baseline FI score): 17 points and 16.9 points | average increase of Multidimensional Fatigue total score, responders compared with non-responders ([2]; over the 48 weeks, p=0.11): 13.9 points | average increase of PedsQL Generic Core Total Scale Score, responders compared with non-responders ([2]; over the 48 weeks, p=0.19): 8.8 points | Difference in change from baseline to week 48, HRQoL item Difficulty steeping through the night ([2]; responders vs non-responders): 52.9 | Difference in change from baseline to week 48, HRQoL item Feeling tired ([2]; responders vs non-responders): 40.1 | Difference in change from baseline to week 48, HRQoL item Feeling tired upon waking ([2]; responders vs non-responders): 72.4 | Difference in change from baseline to week 48, HRQoL item Steeping a lot ([2]; responders vs non-responders): 55.2 | Difference in change from baseline to week 48, HRQoL item Taking a lot of naps ([2]; responders vs non-responders): 40.4 | Difference in change from baseline to week 48, HRQoL item Trouble sleeping ([2]; responders vs non-responders): 45.4 | pruritus at week 48 of the ICONIC study ([2]; result in words): significant improvements in pruritus | patients who achieved ItchRO treatment response (≥1 point reduction) ([2]; week 48, 27 patients): 74% | clinical event: LT ([3]; 76 patients): 10 n | clinical event: death ([3]; 76 patients): 2 n | clinical event: decompensation ([3]; 76 patients): 3 n | clinical event: surgical biliary diversion ([3]; 76 patients): 1 n | patients who experienced clinical events ([3]; 76 patients, up to six years): Sixteen | 6-year EFS [3, 4]: 6-year EFS: 85% | 6-year TFS [3, 4]: 6-year TFS: 90% | 6-year EFS [3, 5]: 6-year EFS: 49% | 6-year TFS [3, 5]: 6-year TFS: 49% | 6-year EFS [3, 6]: 6-year EFS: 90% | 6-year TFS [3, 6]: 6-year TFS: 94% | 6-year EFS [3, 7]: 6-year EFS: 43% | 6-year TFS [3, 7]: 6-year TFS: 42% | 6-year EFS [3, 8]: 6-year EFS: 57% | 6-year TFS [3, 8]: 6-year TFS: 57% | 6-year EFS [3, 9]: 6-year EFS: 83% | 6-year TFS [3, 9]: 6-year TFS: 87% | 6-year EFS [3, 10]: 6-year EFS: 88% | 6-year TFS [3, 10]: 6-year TFS: 93% | 6-year EFS [3, 11]: 6-year EFS: 57% | 6-year TFS [3, 11]: 6-year TFS: 57% | 6-year EFS (%) ([3]; number of worse EFS predictor variables: 0): 89% | 6-year EFS (%) ([3]; number of worse EFS predictor variables: 1): 89% | 6-year EFS (%) ([3]; number of worse EFS predictor variables: 2): 86% | 6-year EFS (%) ([3]; number of worse EFS predictor variables: 3): 29% | 6-year EFS (%) ([3]; number of worse EFS predictor variables: 4): 33% | rate of 6-year EFS ([3]; patients with ≤2 predictors of worse EFS after 48 weeks of treatment): 88% | rate of 6-year EFS ([3]; patients with ≥3 predictors of worse EFS after 48 weeks of treatment): 31%
